The text below walks through data of EP0574992A1, “5-(1,2,4-Triazol-1-ylmethyl)-3H-isobenzofuran-1-one derivatives, their preparation and use as aromatase inhibitors” (GLAXO GROUP LIMITED, priority 1992, dated 1993).

Series [1] deals with T1, human placental aromatase (Homo sapiens, UniProt P11511).
T1 construct: Human placental aromatase was assayed according to the method of Thomson and Siiteri; from tissue; host or cells: human placenta
T1 sequence (P11511 1-503): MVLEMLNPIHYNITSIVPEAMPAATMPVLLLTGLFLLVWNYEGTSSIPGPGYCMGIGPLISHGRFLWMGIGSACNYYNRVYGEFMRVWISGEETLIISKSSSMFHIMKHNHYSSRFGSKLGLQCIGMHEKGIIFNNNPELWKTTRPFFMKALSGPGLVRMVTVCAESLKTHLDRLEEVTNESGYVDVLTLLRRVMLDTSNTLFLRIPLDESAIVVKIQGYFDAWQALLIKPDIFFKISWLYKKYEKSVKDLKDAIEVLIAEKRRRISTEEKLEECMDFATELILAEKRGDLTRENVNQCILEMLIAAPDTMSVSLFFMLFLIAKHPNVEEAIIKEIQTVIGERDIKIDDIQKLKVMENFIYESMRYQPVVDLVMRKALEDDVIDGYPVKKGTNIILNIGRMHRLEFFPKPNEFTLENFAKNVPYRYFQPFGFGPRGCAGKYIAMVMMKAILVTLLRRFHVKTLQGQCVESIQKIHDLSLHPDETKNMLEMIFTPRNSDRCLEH
As to the kind of experiment: Human placental aromatase assay ([3H]-H2O release), in vitro. Type of series: biochemical. Particulars: 1 mM NADPH, read-out: Aromatase inhibitory activity - in vitro IC₅₀. As for the experimental part: Aromatase inhibitory activity may be determined using human placental aromatase.
Human placental aromatase was assayed according to the method of Thomson and Siiteri, Hormone Res. (1979) 11:179-185, except that the assay buffer contained 1 mM NADPH instead of the NADPH-generating system. [³H]-H₂O, released as a by-product of aromatization, was separated from substrate using C18 mini-columns.

In series [2] the test system is mouse. As to the kind of experiment: Acute toxicity study, single oral doses. Type of series: in vivo. Particulars: single doses up to 2g/kg p.o.

`CC1(C)OC(=O)c2ccc(C(c3ccc([N+](=O)[O-])cc3)n3cncn3)cc21` (stereo not shown) [Example 5, 5-[(4-Nitrophenyl)-1,2,4-triazol-1-ylmethyl]-3,3-dimethyl-3H-isobenzofuran-1-one]: in series [1], the IC50 turned out to be 51 nM.
As to `CC1(C)OC(=O)c2ccc(C(c3ccc(C#N)cc3F)n3cncn3)cc21` (stereo not shown) [Example 6, 4-[(3,3-Dimethyl-1-oxo-1,3-dihydro-isobenzofuran-5-yl)-1,2,4-triazol-1 - ylmethyl]-3-fluorobenzonitrile], in series [1], the IC50 came to 83 nM.
`CC1(C)OC(=O)c2ccc(C(c3ccc(C#N)cc3)n3cncn3)cc21` (racemic) [Example 7, 4-[(3,3-Dimethyl-1-oxo-1,3-dihydro-isobenzofuran-5-yl)-1,2,4-triazol-1 - ylmethyl]-benzonitrile]: the IC50 in series [1] stood at 73 nM.
Still for that read-out and setting: as for `CC1(C)OC(=O)c2ccc(C(c3c(F)cc(C#N)cc3F)n3cncn3)cc21` (stereo not shown) [Example 3, 4-[(3.3-Dimethyl-1-oxo-1,3-dihydro-isobenzofuran-5-yl)-1,2,4-triazol-1-ylmethyl]-3,5-difluorobenzonitrile], the figure is 24 nM; as for `CC1(C)OC(=O)c2ccc(C(c3ccc([N+](=O)[O-])cc3F)n3cncn3)cc21` (stereo not shown) [Example 2, 5-[(2-Fluoro-4-nitrophenyl)-1,2,4-triazol-1-ylmethyl]-3,3-dimethyl-3H-isobenzofuran-1-one], 63 nM.
Take `CC1(C)OC(=O)c2ccc(C(c3c(F)cc([N+](=O)[O-])cc3F)n3cncn3)cc21` (racemic) [Example 1, 5-[(2,6-Difluoro-4-nitrophenyl)-1,2,4-triazol-1-ylmethyl]-3,3-dimethyl-3H-isobenzofuran-1-one]: in series [1], the IC50 was 15 nM. In series [2], the “Acute toxicity (tolerability)” value was “well tolerated”.
